Columns and labels:
[1] = Moisture sorption; assay type: physicochemical; settings: between 5% to 95% relative humidity; lost on desorption
[2] = Solid form stability on storage (XRPD); assay type: physicochemical; settings: for XRPD pattern after storage: 40° C./75% RH
Description: X-Ray Powder Diffraction patterns were collected on a Bruker AXS C2 GADDS diffractometer using Cu Kα radiation (40 kV, 40 mA), automated XYZ stage, laser video microscope for auto-sample positioning and a HiStar 2-dimensional area detector. X-ray optics consists of a single Gobel multilayer mirror coupled with a pinhole collimator of 0.3 mm. […] The beam divergence, i.e. the effective size of the X-ray beam on the sample, was approximately 4 mm. […] Typically the sample would be exposed to the X-ray beam for 120 seconds. The software used for data collection was GADDS for WNT 4.1.16 and the data were analyzed and presented using Diffrac Plus EVA v11.0.0.2 or v13.0.0.2. Alternatively, X-Ray Powder Diffraction patterns were collected on a Bruker D8 diffractometer using Cu Kα radiation (40 kV, 40 mA), θ-2θ goniometer, and divergence of V4 and receiving slits, a Ge monochromator and a Lynxeye detector. […] The software used for data collection was Diffrac Plus XRD Commander v2.5.0 and the data were analyzed and presented using Diffrac Plus EVA v11.0.0.2 or v13.0.0.2. Samples were run under ambient conditions as flat plate specimens using powder as received. The sample was gently packed into a cavity cut into polished, zero-background (510) silicon wafer. The sample was rotated in its own plane during analysis. The details of the data collection are: • Angular range: 2 to 42° 2θ • Step size: 0.05° 2θ • Collection time: 0.5 s/step • Analysis duration: 7 minutes Differential Scanning Calorimetry (DSC)

With `Cc1nc(C(=O)NCC(=O)O)c(O)c2ccc(Oc3ccccc3)cc12` [Compound A Form A, [(4-hydroxy-1-methyl-7-phenoxy-isoquinoline-3-carbonyl)-amino]-acetic acid] the “moisture sorption weight gain” value [1] was “approximately 0.2%”.

With `Cc1nc(C(=O)NCC(=O)O)c(O)c2ccc(Oc3ccccc3)cc12.NCCO` [Compound A ethanolamine salt, [(4-hydroxy-1-methyl-7-phenoxy-isoquinoline-3-carbonyl)-amino]-acetic acid ethanolamine salt] the “XRPD pattern after storage” value [2] was “Pattern 3 was observed”.

For “[(4-hydroxy-1-methyl-7-phenoxy-isoquinoline-3-carbonyl)-amino]-acetic acid diethanolamine salt [Compound A diethanolamine salt]”, the “XRPD pattern after storage” value [2] was “Pattern 2 was observed”.

For “[(4-hydroxy-1-methyl-7-phenoxy-isoquinoline-3-carbonyl)-amino]-acetic acid hemihydrate [Compound A Form B]”, the “change of crystalline pattern on storage” value ([2]; 25° C./96% RH for twelve days) was “reverting to Form A” and the “change of crystalline form on storage (high resolution XRPD)” value ([2]; ambient temperature, a full month (32 days)) was “almost completely reverted to anhydrous Form A”.

— patent publication US10272078B2, “Crystalline forms of a prolyl hydroxylase inhibitor” (FibroGen, Inc., priority 2012, dated 2019)
